Results published in PubChem BioAssay (NCI).
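Exposure lasted 48 hours, with cells grown in 96-well plates and compounds tested at five concentrations. GI50 is the concentration that inhibits growth by half. The concentration for full growth arrest is given as TGI.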

How the values were obtained:
Assay in all cases: growth of human tumour cells (NCI), 48 h
SF-539 CNS = tested on: SF-539 CNS
SK-MEL-5 melanoma = tested on: SK-MEL-5 melanoma
UACC-257 melanoma = tested on: UACC-257 melanoma
ACHN renal = tested on: ACHN renal
SNB-19 CNS = tested on: SNB-19 CNS
IGROV1 ovarian = tested on: IGROV1 ovarian
786-0 renal = tested on: 786-0 renal
RPMI-8226 leukemia = tested on: RPMI-8226 leukemia
HCT-15 colon = tested on: HCT-15 colon
SW-620 colon = tested on: SW-620 colon

Row | SMILES | TGI (SF-539 CNS) | TGI (SK-MEL-5 melanoma) | TGI (UACC-257 melanoma) | TGI (ACHN renal) | TGI (SNB-19 CNS) | TGI (IGROV1 ovarian) | TGI (786-0 renal) | TGI (RPMI-8226 leukemia) | TGI (HCT-15 colon) | TGI (SW-620 colon) | GI50 (SF-539 CNS) | GI50 (SK-MEL-5 melanoma) | GI50 (UACC-257 melanoma) | GI50 (ACHN renal) | GI50 (SNB-19 CNS) | GI50 (IGROV1 ovarian) | GI50 (786-0 renal) | GI50 (RPMI-8226 leukemia) | GI50 (HCT-15 colon) | GI50 (SW-620 colon)
1 | O=C1C(Cl)=C(Cl)C(=O)N1c1ccccc1Cl | > 100 µM | > 100 µM | > 100 µM | > 100 µM | > 100 µM | > 100 µM | > 100 µM | > 88.1 µM | > 88.4 µM | > 95 µM | – | – | – | – | – | – | – | – | – | –
2 | Cn1nc(-c2ccccc2)c2c(/C=C/c3ccc(Cl)cc3)onc2c1=O | 72.8 µM | > 100 µM | – | > 100 µM | > 100 µM | > 100 µM | 66 µM | > 100 µM | > 100 µM | > 100 µM | – | – | – | – | – | – | – | – | – | –
3 | O=c1c2cccc(F)c2sc2c(NCCCNCCO)nc3ccccc3c12 | 3.05 µM | 3.09 µM | 3.99 µM | 2.54 µM | 3.17 µM | 2.65 µM | 2.84 µM | 3.99 µM | 2.65 µM | 2.62 µM | 1.65 µM | 1.71 µM | 2.03 µM | 1.28 µM | 1.65 µM | 1.23 µM | 1.44 µM | 1.76 µM | 1.25 µM | 1.22 µM
4 | Cc1ccccc1C=NC12CC3CC(CC(C3)C1)C2 | > 100 µM | > 100 µM | > 100 µM | > 100 µM | > 100 µM | > 100 µM | > 100 µM | > 100 µM | > 100 µM | > 100 µM | – | – | – | – | – | – | – | – | – | –
5 | O=C(Nc1ccccc1)n1cc(-c2ccccn2)c(N2CCOCC2)n1 | 57.6 µM | > 100 µM | > 100 µM | > 100 µM | > 100 µM | > 100 µM | 74.7 µM | > 100 µM | > 100 µM | > 100 µM | – | – | – | – | – | – | – | – | – | –
6 | CCC(C)C(=O)O[C@H]1C(=O)O[C@@H]2C[C@H]3C(C)=CC(=O)[C@@H](O)[C@]3(C)[C@H]3[C@@H](O)[C@H](O)[C@@]4(C)OC[C@]32[C@@H]14 (some centres not stated) | 0.0334 µM | < 0.0338 µM | < 0.01 µM | 0.566 µM | < 0.0291 µM | 0.0889 µM | 0.645 µM | < 0.0266 µM | 0.071 µM | 0.28 µM | – | – | – | – | – | – | – | – | – | –
7 | COC(=O)C(=O)C(C#N)c1cccc(Cl)c1 (configuration not stated) | > 100 µM | > 100 µM | > 100 µM | > 100 µM | > 100 µM | > 100 µM | > 100 µM | > 100 µM | > 100 µM | > 100 µM | – | – | – | – | – | – | – | – | – | –
8 | Cc1occc1C(=S)Nc1ccc(Cl)c(C(=O)OCC(C)C)c1 | 43.6 µM | 29 µM | 40.2 µM | 43.2 µM | 31.2 µM | 34.5 µM | 33.5 µM | 75 µM | 36.1 µM | 45.8 µM | – | – | – | – | – | – | – | – | – | –
9 | CC1NC(C(=O)O)Cc2cc(O)c(O)cc21 (configuration not stated) | > 100 µM | > 100 µM | > 100 µM | > 100 µM | > 100 µM | > 100 µM | > 100 µM | > 100 µM | > 100 µM | > 100 µM | – | – | – | – | – | – | – | – | – | –
10 | CC(=O)OC1CC2C(C)(C)CCC[C@]2(C)C2=C1C(O)=C(C(C)C)C(=O)C2=O (some centres not stated) | 3.83 µM | 0.343 µM | 3 µM | 1.66 µM | > 46 µM | 5.52 µM | 2.91 µM | 4.08 µM | 2.04 µM | 2.92 µM | 0.723 µM | 0.174 µM | 0.932 µM | 0.465 µM | 0.646 µM | 1.53 µM | 0.813 µM | 0.466 µM | 0.351 µM | 0.911 µM
11 | O=C(/C=C/c1ccco1)Nc1ncc(Cc2cccc(C(F)(F)F)c2)s1 | 0.313 µM | 1.81 µM | > 100 µM | 3.66 µM | > 44.5 µM | > 32.2 µM | 17.8 µM | 10.9 µM | > 34.3 µM | > 100 µM | 0.0762 µM | 0.0512 µM | 3.63 µM | 0.0647 µM | 0.1 µM | 0.124 µM | 0.163 µM | 0.291 µM | 0.0465 µM | 0.0422 µM
12 | Cc1cc2c(C(=O)NCC#N)cccc2n1-c1nc2c(c(NCc3ccccc3)n1)CCCC2 | 0.764 µM | 0.245 µM | – | 1.24 µM | 2.91 µM | 1.24 µM | 1.39 µM | – | 0.404 µM | 1.29 µM | 0.249 µM | 0.118 µM | – | 0.28 µM | 0.499 µM | 0.315 µM | 0.382 µM | – | 0.192 µM | 0.355 µM
13 | CCC1=C[C@@H]2CN(C1)Cc1c([nH]c3ccccc13)[C@@](C(=O)OC)(c1cc3c(cc1OC)N(C)[C@H]1[C@@](O)(C(=O)OC)[C@H](OC(C)=O)[C@]4(CC)C=CCN5CC[C@]31[C@@H]54)C2 | 0.0441 µM | 0.119 µM | – | 25.6 µM | 18.9 µM | 0.463 µM | 13 µM | – | 6.8 µM | 17.9 µM | < 0.01 µM | < 0.01 µM | – | 0.194 µM | < 0.01 µM | < 0.0136 µM | < 0.0205 µM | < 0.01 µM | 0.141 µM | < 0.01 µM
14 | Nc1c(C(=O)c2ccc(C#CCN3CCOCC3)cc2)cnn1-c1ccc(F)cc1 | > 25 µM | > 25 µM | > 25 µM | > 25 µM | > 25 µM | > 25 µM | > 25 µM | > 25 µM | > 25 µM | > 25 µM | > 25 µM | > 25 µM | > 25 µM | > 25 µM | > 25 µM | > 25 µM | > 25 µM | > 25 µM | > 25 µM | > 25 µM
15 | N#CC(C(=O)CCC(=O)Nc1ccc(Cl)cc1)c1ccc(Cl)cc1 (configuration not stated) | > 100 µM | > 100 µM | > 100 µM | > 100 µM | > 100 µM | > 100 µM | > 100 µM | > 100 µM | > 100 µM | > 100 µM | – | – | – | – | – | – | – | – | – | –
